Data reported in patent US11708391B2, “Rapaglutins, novel inhibitors of GLUT and use thereof” (The Johns Hopkins University, priority 2016, dated 2023).
Where two headings read alike, the source gives them in different places.

Legend:
[1] = system: HeLa; assay: alamar blue assay, HeLa; type: cell-based
Source text: (§1) Dose-dependent inhibition of cell proliferation by A18 and E11 was next evaluated in several other human cancer cell lines, including breast cancer HCC1954, pancreatic cancer PANC10.05, leukemia Jurkat T and colon cancer RKO (FIGS. 1b and 1c). […] (FIGS. 1 and 9; Table 3)

[2] = system: colon cancer RKO; assay: alamar blue assay, RKO; type: cell-based, human
Source text: as §1

[3] = system: T1, glucose transporters; assay: 2-deoxy-D-[3H] glucose uptake in A549 cells; type: cell-based, human; conditions: for inhibition of glucose transport: A549 cells, glucose uptake assay
T1 construct: IC50 uptake of 3H-labeled 3-O-methylglucose; other: A549 cells; compared with 3-O-methylglucose uptake; other: A549 cells treated with drugs for 1 min; other: A549 cells, glucose uptake assay; other
Protocol: FIGS. 2A-2D. Inhibition of Glucose Transport by A18 and E11. (a) Inhibition of 3-O-methyl¬D-[3H] glucose uptake in A549 cells by A18. (b) Inhibition of 3-O-methyl-D-[3H] glucose uptake in A549 cells by E11. (c) Inhibition of 2-deoxy-D-[3H] glucose uptake in A549 […] cells by A18. (d) Inhibition of 2-deoxy-D-[3H] glucose uptake in A549 cells by E11.
FIGS. 16A-16B. Inhibition of Glucose Transport by A18 and E11. Cytochalasin B (10 μM), A18 (3 μM), E11 (3 μM) and DMSO control were used to treated A549 cells for 10 min (a) or 1 min (b), then glucose uptake in the treated cells was measured at 1, 3, 10 and 30 min after the addition of 2-dexoy-D-[^3H] glucose.
Direct action on glucose transporters was measured by monitoring uptake of 3H-labeled 3-O-methylglucose, which is transported by glucose transporters but not metabolized further, allowing the assessment of initial rate of glucose uptake. […] Initial uptake can also be assessed by measuring the uptake of 3H-labeled 2-deoxy-D-glucose, which gets into the cell through glucose transporters and is phosphorylated by hexokinase but cannot be metabolized further due to the lack of oxygen at the second position.

[4] = molecular target: T2, GLUT1 (Homo sapiens, UniProt P11166); assay: 3-O-methyl-D-[3H] glucose uptake in human red blood cells; type: cell-based; conditions: RBCs; read-out: IC50 3H-labeled 3-O-methylglucose uptake
T2 construct: endogenous in cells; host or cells: erythrocyte (RBC-derived) ghosts
T2 sequence (P11166 1-492): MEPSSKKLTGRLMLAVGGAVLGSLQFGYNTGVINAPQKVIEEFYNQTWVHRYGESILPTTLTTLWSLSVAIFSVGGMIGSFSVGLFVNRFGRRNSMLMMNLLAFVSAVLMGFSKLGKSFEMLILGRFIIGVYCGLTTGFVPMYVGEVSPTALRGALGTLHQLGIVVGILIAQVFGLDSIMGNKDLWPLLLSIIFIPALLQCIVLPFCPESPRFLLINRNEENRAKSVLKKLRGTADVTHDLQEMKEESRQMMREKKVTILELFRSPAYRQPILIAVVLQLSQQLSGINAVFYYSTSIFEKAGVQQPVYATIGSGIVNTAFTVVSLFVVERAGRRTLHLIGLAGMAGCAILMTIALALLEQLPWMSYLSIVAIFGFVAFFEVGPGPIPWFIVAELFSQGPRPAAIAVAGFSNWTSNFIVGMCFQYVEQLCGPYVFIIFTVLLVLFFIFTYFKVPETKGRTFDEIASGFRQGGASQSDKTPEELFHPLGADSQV
Source text: (§2) FIGS. 3A-3D. Inhibition of Glucose Transport by A18 and E11. (a) Inhibition of 3-O-methyl-D-[3H] glucose uptake in human red blood cells by A18. (b) Inhibition of 3-O-methyl-D-[3H] glucose uptake in human red blood cells by E11. (c) Inhibition of 3-O-methyl-D-[3H] glucose uptake in erythrocyte ghosts by A18. (d) Inhibition of 3-O-methyl-D-[3H] glucose uptake in erythrocyte ghosts by E11.
(§3) A18 and E11 were previously shown to have a broad spectrum of anticancer activity. […] To test this hypothesis, red blood cells (RBCs) were applied as a cell model because RBCs express Glut1 as their sole glucose transporter and have been frequently used in studying glucose transport. […] To eliminate other possibilities, the glucose uptake assays were repeated in RBC-derived ghosts, in which all the intracellular proteins and enzymes were removed and only membrane-bound and membrane-associated proteins remained. […] (see FIGS. 2, 3 and 15-18)

[5] = molecular target: T2, GLUT1; assay: 3-O-methyl-D-[3H] glucose uptake in RBC-derived ghosts; type: cell-based
Source text: as §2, §3

[6] = system: DLD-1 GLUT1 gene knock out cells; assay: alamar blue cell viability assay, DLD-1 GLUT1 knock out; type: cell-based
Source text: FIGS. 19A-19C. E11 is a specific inhibitor of Glut1. (a)(b) Inhibition of cell proliferation in A549, DLD-1 wild type and Glut1 knock out cells by A18 and E11. (c) Potency of A18 and E11 against the alamar blue assay in A549, DLD-1 wild type and Glut1 knock out cells.
Up to now, at least 14 different isoforms of GLUTs have been identified in human cells. It was then asked whether A18 and E11 are specific inhibitors of GLUT1. To answer this question, colon cancer DLD-1 wild type and GLUT1 gene knock out cell lines were chosen as a cell model (FIG. 4a). […] GLUTs that are most relevant to cancer are Glut1 and Glut3. To obtain additional evidence, Glut1 and Glut3 in HEK 293T cells were overexpressed and an alamar blue cell viability assay was performed again. […] (see FIGS. 4, 19, 20, 26; Table 4).

[7] = system: AMPK; assay: Western blot, AMPK phosphorylation in HEK 293T; type: cell-based
Source text: FIGS. 7A-7B. (a) A18 activates AMPK and inhibits S6K in HEK 293T cells. […] (b) A18 and E11 activate AMPK and inhibit S6K in HEK 293T cells.
(§4) Whether A18 and E11 treatment affect key cell growth signaling proteins was examined next. […] But it has no effects on the phosphorylation of ERK, AKT or JNK (FIG. 7). As previously reported, AMPK is likely to act as the key link between the ATP reduction and the subsequent cancer cell inhibition. (FIGS. 7 and 23-25). Based on the data reported here, the working model for A18 and E11 was proposed as outlined in FIG. 8. […] These led to upregulation of phosphorylation of AMPK and downregulation of phosphorylation of S6K. […] (FIG. 8)

[8] = system: ERK, AKT or JNK; assay: Western blot, phosphorylation of ERK, AKT or JNK; type: cell-based
Source text: as §4

Compound	IC50 [1]	IC50 [2]	glucose uptake inhibition ([3]; A549 cells treated with drugs for 1 min)	inhibition of glucose transport [3]	IC50 [4]	IC50 glucose uptake [5]	inhibition of cell proliferation, alamar blue [6]	phosphorylation of AMPK [7]	phosphorylation of ERK, AKT or JNK [8]	IC50 ([1]; Homo sapiens)	IC50 ([2]; Homo sapiens)	IC50 [5]
Gly-^MSerBu-Nal-^MAla [E11]	383 nM	714 nM	50%	significantly inhibit	74.2 nM	totally lost its inhibitory activity	didn't show any inhibition	inducing phosphorylation of AMPK	no effects	–	–	–
CC[C@@H](C)[C@H]1C(=O)NCC(=O)N(C)CC/C=C/C(=O)OCC(C)(C)C(=O)C(=O)N2CCCC[C@H]2C(=O)O[C@H](CCc2ccc(OC)c(OC)c2)c2cccc(c2)NC(=O)CCC(=O)N(C)[C@@H](CC(C)C)C(=O)N[C@H](Cc2ccccc2)C(=O)N1C [A18]	–	–	–	significantly inhibit	34.2 nM	–	strongly inhibited	inducing phosphorylation of AMPK	no effects	281 nM	114 nM	49.5 nM
